In patent US8263606B2 (Xenon Pharmaceuticals Inc., priority 2008, dated 2012):

How the values were obtained:
CYP3A4 = CYP3A4 (Homo sapiens, UniProt P08684); assay: Cytochrome P450 (CYP450) Inhibition Assay, CYP3A4 (Vivid fluorescence, BOMCC substrate); settings: human, P450 Baculosomes (recombinant CYP3A4), probe BOMCC (Vivid substrate)
sodium channel = assay: Guanidine influx assay (14C-guanidine radiotracer flux, in vitro); format: cell-based, human or rat; settings: guanidine influx assay using a known cell line that expresses a sodium channel
How it was run: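 Aconitine holds channels open while 14C-guanidine enters human or rat sodium-channel-expressing cells in choline-substituted low-sodium saline, with test agent present at ambient temperature. Retained tracer is scintillation-counted and IC50 fitted by a four-parameter logistic model.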

Chain of CYP3A4 (P08684 whole entry): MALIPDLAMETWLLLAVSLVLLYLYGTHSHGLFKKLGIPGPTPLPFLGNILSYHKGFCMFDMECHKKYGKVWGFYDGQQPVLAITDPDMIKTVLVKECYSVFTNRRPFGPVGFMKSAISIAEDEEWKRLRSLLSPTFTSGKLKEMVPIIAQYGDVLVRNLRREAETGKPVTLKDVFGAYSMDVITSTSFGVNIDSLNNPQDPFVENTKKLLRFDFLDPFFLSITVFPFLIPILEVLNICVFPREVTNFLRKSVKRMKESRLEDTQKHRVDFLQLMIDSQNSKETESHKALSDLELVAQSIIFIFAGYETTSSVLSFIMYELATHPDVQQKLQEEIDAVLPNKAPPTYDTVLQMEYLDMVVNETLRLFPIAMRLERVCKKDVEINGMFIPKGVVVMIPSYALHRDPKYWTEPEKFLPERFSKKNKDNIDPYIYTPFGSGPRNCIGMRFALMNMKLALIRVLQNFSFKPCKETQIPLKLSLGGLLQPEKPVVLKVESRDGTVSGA

SMILES | inhibition at 10 µM (CYP3A4) | melting point | IC50 (sodium channel) | IC50 (sodium channel; activity level class)
O=C1N(C2CC2)c2ccccc2C12COc1cc3c(cc12)OCCO3 (stereo not drawn) [Example 21, 1′-cyclopropyl-2,3-dihydrospiro[furo[2,3-g][1,4]benzodioxine-8,3′-indol]-2′(1′H)-one] | < 50% | 227 to 228 °C | 1 to 100 nM | –
O=C1N(Cc2ccc(=O)[nH]c2)c2ccccc2C12COc1cc3c(cc12)OCCO3 (stereo not drawn) [Example 35, 1′-[(6-oxo-1,6-dihydropyridin-3-yl)methyl]-2,3-dihydrospiro[furo[2,3-g][1,4]benzodioxine-8,3′-indol]-2′(1′H)-one] | < 50% | 249 to 250 °C | 100 to 1000 nM | –
O=C1N(Cc2nc3ccccc3s2)c2ccccc2C12COc1cc3c(cc12)OCCO3 (stereo not drawn) [Example 4.119, 1-(1,3-benzothiazol-2-ylmethyl)-2,3-dihydrospiro[furo[2,3-g][1,4]benzodioxine-8,3′-indol]-2′(1′H)-one] | > 50% | 164 to 166 °C | – | 1 to 100 nM
CN1C(=O)C2(COc3cc4c(cc32)OCCO4)c2ccccc21 (stereo not drawn) [Example 5.22, 1′-methyl-2,3-dihydrospiro[furo[2,3-g][1,4]benzodioxine-8,3′-indol]-2′(1′H)-one] | < 50% | 152 to 154 °C | – | 1 to 100 nM
Cc1cc2c(cc1C)C1(CO2)C(=O)N(CC2CCOCC2)c2ccccc21 (stereo not drawn) [Example 9.27, 5,6-dimethyl-1′-(tetrahydro-2H-pyran-4-ylmethyl)spiro[1-benzofuran-3,3′-indol]-2′(1′H)-one] | > 50% | 199 to 201 °C | – | 1000 to 10000 nM
CN1C(=O)CC[C@H]1CN1C(=O)C2(COc3cc4c(cc32)CCO4)c2ccccc21 (stereo partly drawn) [Example 11.70, 1′-{[(2S)-1-methyl-5-oxopyrrolidin-2-yl]methyl}-5,6-dihydrospiro[benzo[1,2-b:5,4-b′]difuran-3,3′-indol]-2′(1′H)-one] | > 50% | 72 to 76 °C | 1000 to 10000 nM | –
O=C1N(Cc2nnc(C(F)(F)F)o2)c2ccccc2C12COc1cc3c(cc12)OCCO3 (stereo not drawn) [Example 11.92, 1′-{[5-(trifluoromethyl)-1,3,4-oxadiazol-2-yl]methyl}-2,3-dihydrospiro[furo[2,3-g][1,4]benzodioxine-8,3′-indol]-2′(1′H)-one] | < 50% | 137 to 139 °C | 1 to 100 nM | –
O=C1N(Cc2ccc(OCc3ccccc3)cc2)c2ccccc2[C@]12COc1cc3c(cc12)OCCO3 [Example 9.39, (8S)-1′-[4-(Benzyloxy)Benzyl]-2,3-Dihydrospiro[Furo[2,3-g][1,4]Benzodioxine-8,3′-Indol]-2′(1′H)-One] | < 50% | 151 to 153 °C | – | 100 to 1000 nM
Cc1cccc(NC(=O)c2ccccc2CN2C(=O)C3(COc4cc5c(cc43)CCO5)c3ccccc32)c1 (stereo not drawn) [Example 12.19, N-(3-methylphenyl)-2-[(2′-oxo-5,6-dihydrospiro[benzo[1,2-b:5,4-b′]difuran-3,3′-indol]-1′(2′H)-yl)methyl]benzamide] | > 50% | 229 to 231 °C | 1000 to 10000 nM | –
Cn1c(CN2C(=O)C3(COc4cc5c(cc43)CCO5)c3ccccc32)nc2ccccc21 (stereo not drawn) [Example 9.12, 1′-[(1-methyl-1H-benzimidazol-2-yl)methyl]-5,6-dihydrospiro[benzo[1,2-b:5,4-b′]difuran-3,3′-indol]-2′(1′H)-one] | > 50% | 244 to 246 °C | – | 100 to 1000 nM
O=C1N(Cc2nsc(Cl)n2)c2cccc(Cl)c2C12COc1cc3c(cc12)OCO3 (stereo not drawn) [Example 6.1, 4′-chloro-1′-[(5-chloro-1,2,4-thiadiazol-3-yl)methyl]spiro[furo[2,3-f][1,3]benzodioxole-7,3′-indol]-2′(1′H)-one] | > 50% | 174 to 176 °C | – | 1 to 100 nM
O=C1Nc2cc(F)ccc2C12COc1cc3c(cc12)CCO3 (stereo not drawn) [Example 3.5, 6′-fluoro-5,6-dihydrospiro[benzo[1,2-b:5,4-b′]difuran-3,3′-indol]-2′(1′H)-one] | > 50% | 249 to 251 °C | – | 1000 to 10000 nM
Cc1cccc(NC(=O)c2ccccc2CN2C(=O)C3(COc4cc5c(cc43)CCO5)c3ccccc32)c1C (stereo not drawn) [Example 12.21, N-(2,3-dimethylphenyl)-2-[(2′-oxo-5,6-dihydrospiro[benzo[1,2-b:5,4-b′]difuran-3,3′-indol]-1′(2′H)-yl)methyl]benzamide] | > 50% | > 230 °C | 1000 to 10000 nM | –
Cc1noc2cc3c(cc12)C1(CO3)C(=O)N(Cc2cnccn2)c2ccccc21 (stereo not drawn) [Example 9.56, 3-methyl-1′-(pyrazin-2-ylmethyl)spiro[furo[3,2-f][1,2]benzisoxazole-5,3′-indol]-2′(1′H)-one] | < 50% | 170 to 173 °C | 1 to 100 nM | –
CN1CCC(CN2C(=O)C3(COc4cc5c(cc43)CCO5)c3ccccc32)CC1 (stereo not drawn) [Example 11.10, 1′-[(1-methylpiperidin-4-yl)methyl]-5,6-dihydrospiro[benzo[1,2-b:5,4-b′]difuran-3,3′-indol]-2′(1′H)-one] | > 50% | 155 to 158 °C | ≥ 10000 nM | –
COCCOc1ccc2c(c1)C1(CO2)C(=O)N(Cc2ccccn2)c2ccccc21 (stereo not drawn) [Example 5.35, 5-(2-methoxyethoxy)-1′-(pyridin-2-ylmethyl)spiro[1-benzofuran-3,3′-indol]-2′(1′H)-one] | < 50% | 140 to 142 °C | – | 100 to 1000 nM
Cl.O=C1N(C[C@H]2CCCO2)c2ccccc2C12COc1cc(O[C@@H]3CCNC3)ccc12 (stereo partly drawn) [Example 11.58, 6-[(3R)-pyrrolidin-3-yloxy]-1′-[(2R)-tetrahydrofuran-2-ylmethyl]spiro[1-benzofuran-3,3′-indol]-2′(1′H)-one hydrochloride] | < 50% | 120 to 130 °C | 1000 to 10000 nM | –
COc1ccc(CN2C(=O)C3(COc4cc5c(cc43)CCO5)c3c2ccc2ncccc32)cc1 (stereo not drawn) [Example 2.38, 3′-(4-methoxybenzyl)-5,6-dihydrospiro[benzo[1,2-b:5,4-b′]difuran-3,1′-pyrrolo[3,2-f]quinolin]-2′(3′H)-one] | > 50% | 169 to 170 °C | – | 100 to 1000 nM
O=C1N(Cc2cnc(N3CCOCC3)s2)c2ccccc2C12COc1cc3c(cc12)OCO3 (stereo not drawn) [Example 11.2, 1′-[(2-morpholin-4-yl-1,3-thiazol-5-yl)methyl]spiro[furo[2,3-f][1,3]benzodioxole-7,3′-indol]-2′(1′H)-one] | > 50% | 97 to 99 °C | 100 to 1000 nM | –
NC(=O)c1ccc(CN2C(=O)C3(COc4cc5c(cc43)OCCO5)c3ccccc32)cc1 (stereo not drawn) [Example 12.60, 4-[(2′-oxo-2,3-dihydrospiro[furo[2,3-g][1,4]benzodioxine-8,3′-indol]-1′(2′H)-yl)methyl]benzamide] | > 50% | 236 to 238 °C | 1 to 100 nM | –
Nc1noc2cc3c(cc12)C1(CO3)C(=O)N(C[C@H]2CCCO2)c2ccccc21 (stereo partly drawn) [Example 44.2, 3-amino-1′-[(2R)-tetrahydrofuran-2-ylmethyl]spiro[furo[3,2-f][1,2]benzisoxazole-5,3′-indol]-2′(1′H)-one] | < 50% | 116 to 119 °C | 1000 to 10000 nM | –
O=C1N(Cc2ccc(-c3noc(C(F)(F)F)n3)cc2)c2ccccc2C12COc1cc3c(cc12)CCO3 (stereo not drawn) [Example 11.13, 1′-{4-[5-(trifluoromethyl)-1,2,4-oxadiazol-3-yl]benzyl}-5,6-dihydrospiro[benzo[1,2-b:5,4-b′]difuran-3,3′-indol]-2′(1′H)-one] | < 50% | 178 to 179 °C | 100 to 1000 nM | –
COc1cc2c(cc1C)C1(CO2)C(=O)N(C[C@H]2CCCO2)c2ccccc21 (stereo partly drawn) [Example 4.61, 6-methoxy-5-methyl-1′-[(2R)-tetrahydrofuran-2-ylmethyl]spiro[1-benzofuran-3,3′-indol]-2′(1′H)-one] | < 50% | 151 to 153 °C | – | 1000 to 10000 nM
COc1cc2c(cc1F)C1(CO2)C(=O)N(C[C@H]2CCCO2)c2ccccc21 (stereo partly drawn) [Example 4.66, 5-fluoro-6-methoxy-1′-[(2R)-tetrahydrofuran-2-ylmethyl]spiro[1-benzofuran-3,3′-indol]-2′(1′H)-one] | < 50% | 106 to 116 °C | – | 100 to 1000 nM
COc1ccc(CN2C(=O)C3(COc4cc(O)c(C#N)cc43)c3ccccc32)cc1 (stereo not drawn) [Example 2.39, 6-hydroxy-1′-(4-methoxybenzyl)-2′-oxo-1′,2′-dihydrospiro[1-benzofuran-3,3′-indole]-5-carbonitrile] | > 50% | 112 to 114 °C | – | 1000 to 10000 nM
Cl.N#CCCNCCCN1C(=O)C2(COc3cc4c(cc32)CCO4)c2ccccc21 (stereo not drawn) [Example 15.4, 3-{[3-(2′-oxo-5,6-dihydrospiro[benzo[1,2-b:5,4-b′]difuran-3,3′-indol]-1′(2′H)-yl)propyl]amino}propanenitrile hydrochloride] | > 50% | 214 to 216 °C | 100 to 1000 nM | –
Cn1c(=O)oc2cc3c(cc21)OCC31C(=O)N(C(c2ccccc2)c2ccccc2)c2ccccc21 (stereo not drawn) [Example 2.16, 1′-(diphenylmethyl)-3-methylspiro[furo[2,3-f][1,3]benzoxazole-7,3′-indole]-2,2′(1′H,3H)-dione] | < 50% | 228 to 229 °C | – | ≥ 10000 nM
